# Measured values as given in patent publication EP0173527A2, “Insulin-selective somatostatin analogs” (THE SALK INSTITUTE FOR BIOLOGICAL STUDIES, priority 1984, dated 1986).
# Entries after “also recorded” stand apart in the source; their conditions may differ. Positions of bridges follow the written chain, without caps; N, C: chain ends.
# What was measured:
# [1] = test system: cells of rat pituitary glands; experiment: in vitro radioimmunoassay of growth hormone release from cultured rat pituitary cells, side-by-side comparison with somatostatin-14; type: cell-based; conditions: for biological activity / potency: comparative in vitro testing, compared with aSS-28
# Procedure: To determine the effectiveness of the peptides to inhibit the release of […], in vitro radioimmunoassays are carried out using aSS-28, [Lys^23]-aSS-28 and aSS(15-28) in side-by-side comparison with equimolar concentrations of somotostatin-14 having a known effectiveness to inhibit the release of growth hormone induced by the application of isobutyl methyl xanthine to pituitary cells. Cultures are used which include cells of rat pituitary glands removed some four to five days previously in a system that minimizes enzymatic degradation, generally following the procedure set forth in Vale et al., Methods in Enzymology, Hormones and Cyclic Nucleotides (1975) Vol. 37, p. 82. Both cultures of a defined standard medium and cultures which are considered optimal for the secretion of growth hormone, as a result of having additions of either 2% or 10% of serum from a foetal calf, are used for the comparative testing.
# [2] = synthetic SS-28; Pradayrol et al., FEBS Letters 109, 1980; cited from earlier work
# [3] = test system: secretion of glucagon and insulin; experiment: in vivo inhibition of insulin (and glucagon) secretion, potency relative to somatostatin-14; design: species or system rats; conditions: basal and stimulated insulin secretion in mammals, including humans and dogs; compared with somatostatin-14 and somatostatin-28
# Procedure: In vivo experiments are carried out with aSS-28, using the procedure described in Brown et al., Metabolism (1976) Vol. 25, pp. 1501-1503, to determine the potency, relative to somatostatin-14, to inhibit the secretion of glucagon and insulin stimulated by the administration of arginine to groups of rats.
substance,measurement,setting,value
H-Ala-Gly-Cys-Lys-Asn-Phe-Tyr-Trp-Hyl-Gly-Phe-Thr-Ser-Cys-OH [aSS(15-28)],biological activity / potency,[1],similarly biologically active although having somewhat lower potencies
H-Ser-Ala-Asn-Ser-Asn-Pro-Ala-Met-Ala-Pro-Arg-Glu-Arg-Lys-Ala-Gly-Cys-Lys-Asn-Phe-Phe-Trp-Lys-Thr-Phe-Thr-Ser-Cys-OH [SS-28],potency when administered in vivo,[2],increased potency
H-Ser-Val-Asp-Ser-Thr-Asn-Asn-Leu-Pro-Pro-Arg-Glu-Arg-Lys-Ala-Gly-Cys-Lys- Asn-Phe-Tyr-Trp-Lys-Gly-Phe-Thr-Ser-Cys-OH (H-SVDSTNNLPPRERKAGCKNFYWKGFTSC-OH; disulfide 17-28 (inferred); ends not checked) [[Lys 23]-aSS-28],biological activity / potency,[1],similarly biologically active although having somewhat lower potencies
H-Ser-Val-Asp-Ser-Thr-Asn-Asn-Leu-Pro-Pro-Arg-Glu-Arg-Lys-Ala-Gly-Cys-Lys-Asn-Phe-Tyr-Trp-Hyl-Gly-Phe-Thr-Ser-Cys-OH [aSS-28],potency to inhibit insulin secretion,[3],increased potency; also recorded: more potent than either somatostatin-14 or somatostatin-28
same,insulin-selectivity,[1]; inferred from GH inhibition compared with SS-14,likely insulin-selective; also recorded: extreme insulin-selectivity
same,inhibition of GH,"[1]; release of growth hormone induced by isobutyl methyl xanthine, compared with equimolar SS-14",substantially less than SS-14
